Measurements published in patent publication US20230257771A1, “AAV DELIVERY SYSTEM FOR LUNG CANCER TREATMENT” (Christiana Care Health Services, Inc., priority 2020, published 2023).
“Also recorded” adds a separate entry of the source.

Assays:
[1] = tested on: NRF2 knockout A549 (2-11) tumors; assay: Xenograft mouse model, NRF2 knockout A549 (2-11) tumors; format: in vivo
Experimental: (§1) The animal trials presented herein were carried out at Washington Biotech Inc., Simpsonville Maryland, under animal use and care protocol (SOP 505, SOP 520, SOP 522, SOP 1610, SOP1650) approved by the animal care and use committee of Washington Biotechnology Inc. (AAALAC accredited Animal Welfare Assurance number A4192-01). The human xenograft model was established using methodology reported previously. Kellar et al., Biomed Res. Int. 2015, 1-17 (2015). Female athymic nude mice (Envigo, 5-6 weeks old) were used in this study. Approximately 5 × 10^6 cells (wild type A549 or homozygous knockout (clonal expansion 2-11)) suspended in PBS with 20% Matrigel were injected subcutaneously into right flank of each mouse. Tumor volume was measured three times a week with a digital caliper once palpable, and calculated using the formula, tumor size = ab^2/2, where ‘a’ is the larger and ‘b’ is the smaller of the two dimensions. When tumors grew up to a mean volume of around 100 mm^3, A549 tumor bearing mice or A549-2-11 tumor bearing mice were randomly divided into 7 groups (N=5 for each group) respectively and subject to dose/regimen-finding study. They were treated with tail vein injection of (1) Cisplatin (2 mg/kg), (2) Carboplatin (25 mg/kg), (3) Cisplatin (5 mg/kg) and Vinorelbine (5 mg/kg) or (4) saline on day 0, 3, 6 and 9 (day 0 is designated as the day of dose started) (Sanjana et al., 2014, Nature Methods 11(8); 783-784). Tumor volume and body weight was closely monitored over time. After 16 days, the animals were sacrificed, with tumor removed, weighed and processed for molecular analysis. Mice were euthanized. The data were expressed as mean ± SD. Student’s t-test and one-way or two-way ANOVA was used to assess the significance of difference. A P value < 0.05 was considered significant.
A549 xenografts were resected on day 16, snap frozen in liquid nitrogen and stored in -80° C. until usage. All immunofluorescence staining was performed as previously described. Wang et al., Investig. Opthalmology Vis. Sci. 58, 3896 (2017). Briefly, tumors were embedded in Optimum Cutting Temperature (Tissue Tek, Torrance, CA, USA) and 16-µm-thick sections were obtained with a Leica CM3050 cryostat (Leica Microsystems, Buffalo Grove, IL, USA), and mounted on slides. Slides were fixed and incubated with blocking buffer for 1 hour at room temperature. Sections were then incubated with primary antibody (refer to Table 3 for more details), then washed in PBS and incubated with Alexa Fluor 488 labeled secondary antibody (1:200 dilution; Invitrogen, Grand Island, NY, USA) for 1 hour at RT. Sections were washed in PBS, then mounted with SlowFade Gold antifade mountant with DAPI (Invitrogen, Carlsbad, CA, USA). […]

[2] = tested on: 2-11 A549 cells (NRF2 knockout); assay: MTS cell proliferation assay after drug exposure, NRF2 knockout A549 (2-11); format: cell-based, human; conditions: 72 hours; for chemosensitivity (MTS): increasing dosages of single drug
Experimental: (§2) Cell viability was evaluated using the CellTiter 96 Aqueous Non-Radioactive Cell Proliferation Assay (Promega, Madison, WI). A549 cell lines were plated at 2×10^3 cells per well and allowed to culture for 24 hours. The cell media was then aspirated, the cells washed with PBS, then exposed to the MTS reagent for 3 hours. After 3 hours of MTS bio-reduction by proliferating cells, the formazan product’s absorbance was measured using a 450 nm filter on an Infinite 2000 PRO microplate reader (Tecan, Mannadorf, Switzerland). Cell viability after drug exposure was evaluated using the CellTiter 96 Aqueous Non-Radioactive Cell Proliferation Assay. A549 cell lines were plated at 2×10^3 cells per well and allowed to culture for 24 hours. The cells were then treated with cisplatin, carboplatin, or a combination of cisplatin and vinorelbine for three days. The cell media was then aspirated, the cells washed with PBS, then exposed to the MTS reagent for 3 hours. After 3 hours of MTS bio-reduction by proliferating cells, the formazan product’s absorbance was measured using a 450 nm filter on an Infinite 2000 PRO microplate reader.

A549 Clone 2-16 cells = assay: MTS assay, A549 Neh2 KO Clone 2-16 treated with cisplatin; format: cell-based, human; conditions: cisplatin 1, 2, 3, 5, 10 uM, compared to wildtype A549
Source text: (§3) The lung adenocarcinoma-derived cell line, A549, was used transfected with CRISPR/Cas9 designed to target exon 2 of NRF2 to create individual clones with random indel patterns. A total of three clones, 1-17, 2-16, and 2-23, were isolated and expanded. All three clones were collected for genomic DNA isolation and sanger sequencing to confirm the indels present. The DECODR program was used to deconvolute the sanger sequencing of each clone. The A549 cell line is polyploid and therefore, these clones contain 3 alleles of the NRF2 gene. Clone 1-17 contains -2, -2, -13 base pair deletions. Clone 2-16 contains a -1 base pair deletion across all alleles. Clone 2-23 contains two wildtype alleles and a -2 base pair deletion. A cell proliferation assay was used to assess the functionality of NRF2 after CRISPR targeting in combination with cisplatin treatment. The MTS assay was used to measure cellular proliferation of A549 wildtype, Clone 1-17, 2-16, and 2-23 cells. Cells were plated at the same concentration in each well and allowed to recover for 24 hours. […] Absorbance values for each clone and concentration were normalized by dividing the absorbance by the absorbance of each control well (0 µM). Normalized values for each clone at each concentration were then averaged across and standard error of the mean was calculated. […]

A549 Clone 1-17 cells = assay: MTS assay, A549 Neh2 KO Clone 1-17 treated with cisplatin; format: cell-based, human; conditions: cisplatin 1, 2, 3, 5, 10 uM, compared to wildtype A549
Source text: as §3

wild type A549 tumors = assay: Xenograft mouse model, wild type A549 tumors; format: in vivo
Experimental: as §1, with “They were treated with tail vein injection of (1) Cisplatin (2 mg/kg), (2) Carboplatin (25 mg/kg), (3) Cisplatin (5 mg/kg) and Vinorelbine (5 mg/kg) or (4) saline on day 0, 3, 6 and 9 (day 0 is designated as the day of dose started) (Sanjana et al., 2014, Nature Methods 11(8); 783-784).” left out, “After 16 days, the animals were sacrificed, with tumor removed, weighed and processed for molecular analysis. Mice were euthanized.” left out, “Student’s t-test and one-way or two-way ANOVA was used to assess the significance of difference. A P value < 0.05 was considered significant.” left out

wild type A549 cells = assay: MTS cell proliferation assay after drug exposure, wild type A549; format: cell-based, human; conditions: 72 hours
Experimental: as §2

A549 Clone 2-23 cells = assay: MTS assay, A549 Neh2 KO Clone 2-23 treated with cisplatin; format: cell-based, human; conditions: cisplatin 1, 2, 3, 5, 10 uM, compared to wildtype A549
Source text: as §3

[3] = 5 mg/kg cisplatin and 5 mg/kg vinorelbine in combination
[4] = cisplatin 2 mg/kg, tumors harvested day 16
[5] = increasing cisplatin with Vinorelbine at 5 µM
[6] = increasing dosages of cisplatin

| SMILES | tumor growth over 16 days ([1]; 25 mg/kg carboplatin tail vein) | chemosensitivity (MTS) ([2]; listed as Carboplatin) | sensitivity to cisplatin (MTS) (A549 Clone 2-16 cells) | tumor growth over 16 days [1, 3] | tumor growth over 16 days ([1]; cisplatin 2 mg/kg tail vein, day 0, 3, 6, 9) | size of extracted tumors [1, 4] | sensitivity to cisplatin (MTS) (A549 Clone 1-17 cells) | tumor growth over 16 days (wild type A549 tumors; [3]) | size of extracted tumors (wild type A549 tumors; [4]) | cisplatin dosage above which elevated sensitivity is shown (wild type A549 cells; [5]) | dose dependence of cell proliferation (MTS) (wild type A549 cells; [6]) | resistance to drug (MTS proliferation) (wild type A549 cells; [6]) | concentrations with loss of proliferation ([2]; cisplatin) | chemosensitivity (MTS), combination [2, 5] | chemosensitivity (MTS) [2] | sensitivity to cisplatin (MTS) (A549 Clone 2-23 cells) |
| --- | --- | --- | --- | --- | --- | --- | --- | --- | --- | --- | --- | --- | --- | --- | --- | --- |
| N.N.O=C([O-])C1(C(=O)[O-])CCC1.[Pt+2] [carboplatin] | reduction in tumor proliferation | the cell killing response reflected what was observed in the experiments using cisplatin | – | – | – | – | – | – | – | – | – | – | – | – | – | – |
| N.N.[Cl][Pt][Cl] [cisplatin] | – | – | relatively the same trend of sensitivity | cessation of tumor growth and maintenance of tumor size; also recorded: reduction in tumor proliferation | proliferation of the implanted cells is arrested; also recorded: reduction in tumor proliferation | smallest tumors | relatively the same trend of sensitivity | more sensitive to this combination of drugs | proliferate aggressively | > 5 µM | slight increase in cell proliferation up to 3 µM of cisplatin before proliferation is adversely affected at final concentrations of 5 µM and 10 µM | resistant to high dosages | ≥ 1 µM | increased sensitivity; also recorded: a heightened sensitivity is also observed | heightened sensitivity | even higher resistance than the wildtype cells |
